Target: trimeric construct of the SARS-CoV-2 S2 segment (Severe acute respiratory syndrome coronavirus 2, UniProt P0DTC2, A892P/A899P/A942P/F817P/K986P/V987P)
Assay type: binding

Ivermectin
binding to S2: did not show any binding
